Test results: ChEMBL document CHEMBL5154664, “Imidazolylacetophenone oxime-based multifunctional neuroprotective agents: Discovery and structure-activity relationships” (Eur J Med Chem, 2022)

How the values were obtained:
[1] = Inhibition of LPS induced NO production in mouse BV-2 cells by Griess reagent based analysis; type: functional, cell-based
[2] = Cytotoxicity against LPS induced mouse BV-2 cells assessed as inhibition in cell viability at 20 uM measured by MTT assay
[3] = Antioxidant activity assessed as DPPH radical scavenging activity at 20 uM incubated for 30 mins under dark condition by microplate reader based assay; type: functional
[4] = target: Acetylcholinesterase (Electrophorus electricus) (UniProt O42275); test: Inhibition of electric eel AChE at 20 uM using acetylthiocholine iodide as substrate preincubated with enzyme for 20 mins followed by substrate addition and measured after 45 mins by Ellman's method; settings: time 65.0 min
Chain of Acetylcholinesterase (Electrophorus electricus) (O42275 24-633 limits assumed): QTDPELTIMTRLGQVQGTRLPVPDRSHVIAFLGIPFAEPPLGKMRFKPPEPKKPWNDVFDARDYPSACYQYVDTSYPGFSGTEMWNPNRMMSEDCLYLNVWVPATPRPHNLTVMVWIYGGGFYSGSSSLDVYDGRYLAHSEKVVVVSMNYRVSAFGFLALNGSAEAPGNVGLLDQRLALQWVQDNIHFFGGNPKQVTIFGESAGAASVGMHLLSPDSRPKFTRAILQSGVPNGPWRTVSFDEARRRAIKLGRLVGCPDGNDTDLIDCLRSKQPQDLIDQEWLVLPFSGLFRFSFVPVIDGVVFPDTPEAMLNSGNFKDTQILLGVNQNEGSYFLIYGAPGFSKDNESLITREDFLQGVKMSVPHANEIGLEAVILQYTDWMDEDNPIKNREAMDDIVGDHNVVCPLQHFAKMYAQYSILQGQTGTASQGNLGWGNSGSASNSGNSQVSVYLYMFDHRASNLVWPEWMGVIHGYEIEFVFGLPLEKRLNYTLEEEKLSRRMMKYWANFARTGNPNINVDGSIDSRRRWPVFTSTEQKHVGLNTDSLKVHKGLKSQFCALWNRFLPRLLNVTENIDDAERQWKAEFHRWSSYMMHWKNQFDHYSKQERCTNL

Row | SMILES | EC50 [1] | viability at 20 µM ([2]; BV-2 cells) | viability at 20 µM ([2]; bv-2) | Activity [3] | inhibition [4]
1 | CC1(C)Oc2ccc(/C(Cn3ccnc3)=N/OC(=O)/C=C/c3cccc(Cl)c3)cc2O1 | 4.83 µM | 92.7% |  |  | 
2 | C#CCO/N=C(\Cn1ccnc1)c1ccc(OC)cc1 | 9.07 µM | 95.9% |  |  | 
3 | Clc1ccc(CO/N=C(\Cn2ccnc2)c2ccc(Cl)cc2Cl)c(Cl)c1 [OXICONAZOLE] |  |  | 96.2% |  | 
4 | CC1(C)Oc2ccc(/C(Cn3ccnc3)=N/OC(=O)c3ccc(Cl)cc3)cc2O1 | 5.52 µM | 90.5% |  |  | 
5 | C=C(C)CO/N=C(\Cn1ccnc1)c1ccc2c(c1)OCO2 | 2.12 µM | 96.5% |  |  | 
6 | CC1(C)Oc2ccc(/C(Cn3ccnc3)=N/OC(=O)c3ccc(Br)cc3)cc2O1 | 3.16 µM | 92.6% |  |  | 
7 | Cc1cccc(C(=O)O/N=C(\Cn2ccnc2)c2ccc3c(c2)OC(C)(C)O3)c1 | 1.71 µM | 96.1% |  | 29.8% | 
8 | C#CCO/N=C(\Cn1ccnc1)c1ccc(C(F)(F)F)cc1 | 8.55 µM | 93.7% |  |  | 
9 | CC1(C)Oc2ccc(/C(Cn3ccnc3)=N/OC(=O)c3cccc4ccccc34)cc2O1 | 1.62 µM | 91.1% |  | 36.2% | 
10 | CC1(C)Oc2ccc(/C(Cn3ccnc3)=N/OC(=O)Cc3ccc4ccccc4c3)cc2O1 | 1.51 µM | 96.4% |  |  | 
11 | C#CCO/N=C(\Cn1ccnc1)c1ccc(Cl)cc1 | 15.5 µM | 92.4% |  |  | 
12 | Cc1ccc(C(=O)O/N=C(\Cn2ccnc2)c2ccc3c(c2)OC(C)(C)O3)c2ccccc12 | 1.79 µM | 94.3% |  | 34% | 
13 | CC1(C)Oc2ccc(/C(Cn3ccnc3)=N/OCc3ccccc3)cc2O1 | 5.69 µM | 95.7% |  |  | 
14 | C=CCO/N=C(\Cn1ccnc1)c1ccc2c(c1)OCO2 | 3.42 µM | 97.8% |  |  | 
15 | C#CCO/N=C(\Cn1ccnc1)c1ccc(F)cc1 | 7.8 µM | 93.8% |  |  | 
16 | C#CCO/N=C(\Cn1ccnc1)c1ccc(I)cc1 | 12.7 µM | 92.1% |  |  | 
17 | CC1(C)Oc2ccc(/C(Cn3ccnc3)=N/OC(=O)/C=C/c3ccc(C(F)(F)F)cc3)cc2O1 | 1.03 µM | 92.1% |  | 27.7% | 
18 | Cc1ccc(/C=C/C(=O)O/N=C(\Cn2ccnc2)c2ccc3c(c2)OC(C)(C)O3)cc1 | 6.03 µM | 93.6% |  |  | 
19 | C#CCO/N=C(\Cn1ccnc1)c1ccc2c(c1)OC(C)(C)O2 | 3.25 µM | 95.1% |  |  | 
20 | C#CCO/N=C(\Cn1ccnc1)c1ccc2c(c1)OCO2 | 2.07 µM | 92.5% |  |  | 
21 | CC1(C)Oc2ccc(/C(Cn3ccnc3)=N/OC(=O)c3ccc4cc(Br)ccc4c3)cc2O1 | 1.13 µM | 92.7% |  |  | 69%
